According to US7696129B2, “Substituted aromatic amide derivative, intermediate thereof, agrohorticultural insecticide containing thereof and method for the use thereof” (Nihon Nohyaku Co., Ltd., priority 2001, dated 2010):

Experiments:
Assay type in all cases: in vivo
[1] = test system: Smaller Tea Tortrix (Adxophyes sp.); assay: Test Example 3: insecticidal effect on smaller tea tortrix, tea leaf immersion; details: 50 ppm, tea leaves immersed about 30 seconds, larvae, 25° C., humidity 70%, eight days after the inoculation
In short: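 Tea leaves dipped about 30 s in compound diluted to 50 ppm, air-dried, then infested with smaller tea tortrix larvae at 25°C and 70% humidity. Mortality counted 8 days post-inoculation and scored by a graded criterion; triplicate groups of 10 insects.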

[2] = test system: Diamond Back Moth (Plutella xylostella); assay: Test Example 1: insecticidal effect on diamond back moth, immersion of Chinese cabbage seedling with eggs; details: 50 ppm, seedling with eggs immersed about 30 seconds, 25° C., six days after the immersion
In short: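 Chinese cabbage seedlings bearing 2-day-old moth eggs dipped about 30 s in compound at 50 ppm, air-dried, held at 25° C. Hatched larvae counted six days later to give mortality; triplicate groups of 10 insects.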

[3] = test system: Common Cutworm (Spodoptera litura); assay: Test Example 2: insecticidal effect on common cutworm, cabbage leaf immersion; details: 50 ppm, cabbage leaf immersed about 30 seconds, second-instar larvae, 25° C., eight days after the inoculation
In short: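 Cabbage leaf pieces dipped about 30 seconds in 50 ppm compound dilution, air-dried, then infested with second-instar larvae and kept at 25° C. Dead and alive counted eight days after inoculation to give mortality; triplicate groups of 10 insects.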

| Structure (SMILES) | Test Example 3 (insecticidal effect, mortality criterion) [1] | Test Example 1 (insecticidal effect, mortality criterion) [2] | Test Example 2 (insecticidal effect, mortality criterion) [3] |
| --- | --- | --- | --- |
| CSCC(C)(C)NC(=O)c1c(I)cccc1C(=O)Nc1ccc(C(C(F)(F)F)C(F)(F)F)c(Cl)c1C [5-66] | A (Mortality 100%) | A (Mortality 100%) | A (Mortality 100%) |
| Cc1cc(C(C(F)(F)F)C(F)(F)F)cc(C)c1NC(=O)c1cccc(I)c1C(=O)NC(C)C [5-67] | A (Mortality 100%) | A (Mortality 100%) | E (Mortality 49% or less) |
| CSCC(C)(C)NC(=O)c1c(I)cccc1C(=O)Nc1c(C)cc(C(C(F)(F)F)C(F)(F)F)cc1C [5-68] | E (Mortality 49% or less) | A (Mortality 100%) | E (Mortality 49% or less) |
| CSCC(C)(C)NC(=O)c1c(I)cccc1C(=O)Nc1ccc(C(C(F)(F)F)C(F)(F)F)c(OC(C)C)c1 [5-70] | E (Mortality 49% or less) | A (Mortality 100%) | E (Mortality 49% or less) |
| CSCC(C)(C)NC(=O)c1c(I)cccc1C(=O)Nc1ccc(C(C(F)(F)F)C(F)(F)C(F)(F)F)cc1C (stereo not drawn) [5-71] | A (Mortality 100%) | A (Mortality 100%) | A (Mortality 100%) |
| CCN(CC)C(=O)c1c(I)cccc1C(=O)Nc1ccc(C(C(F)(F)F)C(F)(F)F)cc1C [6-1] | A (Mortality 100%) | A (Mortality 100%) | A (Mortality 100%) |
| Cc1cc(C(C(F)(F)F)C(F)(F)F)ccc1N(C)C(=O)c1cccc(I)c1C(=O)NC(C)C [6-2] | A (Mortality 100%) | A (Mortality 100%) | E (Mortality 49% or less) |
| CSCC(C)(C)NC(=O)c1c(I)cccc1C(=O)N(C)c1ccc(C(C(F)(F)F)C(F)(F)F)cc1C [6-3] | A (Mortality 100%) | A (Mortality 100%) | A (Mortality 100%) |
| Cc1cc(C(C(F)(F)F)C(F)(F)F)ccc1NC(=O)c1ncccc1C(=O)NC(C)C [7-1] | A (Mortality 100%) | A (Mortality 100%) | E (Mortality 49% or less) |
| CSCC(C)(C)NC(=O)c1c(I)cccc1C(=O)Nc1ccc(C(C(F)(F)F)C(F)(F)F)nc1 [8-1] | E (Mortality 49% or less) | A (Mortality 100%) | C (Mortality 89-80%) |
| C[S+]([O-])CC(C)(C)NC(=O)c1c(I)cccc1C(=O)Nc1ccc(C(C(F)(F)F)C(F)(F)F)nc1 (stereo not drawn) [8-2] | E (Mortality 49% or less) | A (Mortality 100%) | E (Mortality 49% or less) |
| CC(C)(CS(C)(=O)=O)NC(=O)c1c(I)cccc1C(=O)Nc1ccc(C(C(F)(F)F)C(F)(F)F)nc1 [8-3] | A (Mortality 100%) | A (Mortality 100%) | E (Mortality 49% or less) |
| C[S+]([O-])CC(C)(C)NC(=O)c1c(I)cccc1C(=O)Nc1ccc(C(C(F)(F)F)C(F)(F)F)nc1Cl (stereo not drawn) [8-5] | A (Mortality 100%) | A (Mortality 100%) | A (Mortality 100%) |
| CC(C)(CS(C)(=O)=O)NC(=O)c1c(I)cccc1C(=O)Nc1ccc(C(C(F)(F)F)C(F)(F)F)nc1Cl [8-6] | A (Mortality 100%) | A (Mortality 100%) | D (Mortality 79-50%) |
| CSCC(C)(C)NC(=O)c1c(C(=O)Nc2ccc(C(C(F)(F)F)C(F)(F)F)nc2C)cccc1[N+](=O)[O-] [8-7] | E (Mortality 49% or less) | A (Mortality 100%) | C (Mortality 89-80%) |
| Cc1nc(C(C(F)(F)F)C(F)(F)F)ccc1NC(=O)c1cccc([N+](=O)[O-])c1C(=O)NC(C)(C)C[S+](C)[O-] (stereo not drawn) [8-8] | E (Mortality 49% or less) | A (Mortality 100%) | E (Mortality 49% or less) |
| Cc1nc(C(C(F)(F)F)C(F)(F)F)ccc1NC(=O)c1cccc([N+](=O)[O-])c1C(=O)NC(C)(C)CS(C)(=O)=O [8-9] | E (Mortality 49% or less) | A (Mortality 100%) | D (Mortality 79-50%) |
| Cc1nc(C(C(F)(F)F)C(F)(F)F)ccc1NC(=O)c1cccc(I)c1C(=O)NC(C)C [8-10] | A (Mortality 100%) | A (Mortality 100%) | A (Mortality 100%) |
| CSCC(C)(C)NC(=O)c1c(I)cccc1C(=O)Nc1ccc(C(C(F)(F)F)C(F)(F)F)nc1C [8-11] | A (Mortality 100%) | A (Mortality 100%) | A (Mortality 100%) |
| Cc1nc(C(C(F)(F)F)C(F)(F)F)ccc1NC(=O)c1cccc(I)c1C(=O)NC(C)(C)C[S+](C)[O-] (stereo not drawn) [8-12] | A (Mortality 100%) | A (Mortality 100%) | A (Mortality 100%) |
| Cc1nc(C(C(F)(F)F)C(F)(F)F)ccc1NC(=O)c1cccc(I)c1C(=O)NC(C)(C)CS(C)(=O)=O [8-13] | A (Mortality 100%) | A (Mortality 100%) | A (Mortality 100%) |
| CSCC(C)NC(=O)c1c(I)cccc1C(=O)Nc1ccc(C(C(F)(F)F)C(F)(F)F)nc1C (stereo not drawn) [8-14] | A (Mortality 100%) | A (Mortality 100%) | A (Mortality 100%) |
| CCNC(=O)OCC(C)NC(=O)c1c(I)cccc1C(=O)Nc1ccc(C(C(F)(F)F)C(F)(F)F)nc1C (stereo not drawn) [8-26] | A (Mortality 100%) | A (Mortality 100%) | D (Mortality 79-50%) |
| Cc1nc(C(C(F)(F)F)C(F)(F)F)ccc1NC(=O)c1cccc(I)c1C(=O)NC(C)COC(=O)NCc1ccccc1 (stereo not drawn) [8-27] | E (Mortality 49% or less) | A (Mortality 100%) | E (Mortality 49% or less) |
| CSCC1(C)COC(c2c(I)cccc2C(=O)Nc2ccc(C(C(F)(F)F)C(F)(F)F)cc2C)=N1 (stereo not drawn) [10-2] | E (Mortality 49% or less) | A (Mortality 100%) | E (Mortality 49% or less) |
| Cc1cc(C(C(F)(F)F)C(F)(F)F)ccc1NC(=O)c1cccc(I)c1C1=NC(C)(C[S+](C)[O-])CO1 (stereo not drawn) [10-3] | E (Mortality 49% or less) | A (Mortality 100%) | E (Mortality 49% or less) |
| Cc1cc(C(C(F)(F)F)C(F)(F)F)ccc1NC(=O)c1cccc(I)c1C1=NC(C)(CS(C)(=O)=O)CO1 (stereo not drawn) [10-4] | E (Mortality 49% or less) | A (Mortality 100%) | E (Mortality 49% or less) |
| CCc1cc(CC(F)(F)F)ccc1NC(=O)c1cccc(I)c1C(=O)NC(C)(C)CSC [Compound No. 5-2] | A (Mortality 100%) | A (Mortality 100%) | A (Mortality 100%) |
